What was measured:
Assay type in all cases: cell-based
M3 muscarinic receptor = target: T1, M3 muscarinic receptor (Homo sapiens, UniProt P20309); test: Functional mobilization of intracellular calcium (FLIPR) in CHO cells expressing M3; conditions: for EC50: CHO cells expressing M3, FLIPR calcium; for Emax: CHO, read-out: M3 Efficacy
T1 construct: expressed in transfected cells; host or cells: CHO (M3-CHO)
Protocol: (§1) Functional Mobilization of Intracellular Calcium to Determine Muscarinic Receptor Activity:
(§2) CHO cells expressing muscarinic receptors (M1 to M5) are grown as monolayers in tissue culture flasks at 37° C. in a humidified atmosphere containing 5% CO2 and passaged every 3-5 days. The growth media is Dulbecco's modified eagles medium (DMEM, Gibco Cat# 12430-054), containing 25 mM Hepes and supplemented with Fetal Bovine Serum (Hyclone, cat# SH30071.03), 0.1 mM of MEM non-essential amino acids (GIBCO, Cat# 11140-050), 1 mM MEM Sodium Pyruvate (GIBCO Cat# 11360-070) and 100 units/ml of Penicillin G and 100 μg/ml of Streptomycin (GIBCO Cat# 15140-122). The recombinant muscarinic receptor cell lines are grown under antibiotic pressure with media containing 25 μg/ml zeocin and 500 μg/ml G418 (M1-CHO), 4 μg/ml puromycin, 50 μg/ml zeocin and 2.5 μg/ml blasticidin (M2 and M4-CHO) or 50 μg/ml zeocin and 4 μg/ml puromycin (M3 and M5-CHO).
(§3) Cells are harvested at 80-90% confluence using Versene (GIBCO Cat# 15040-066), collected by centrifugation and seeded 18-24 hrs prior to running the calcium assay at a density of 5,000-10,000 cells/well in […], clear-bottomed 384-well plates (BD Biocoat, poly-D-lysine, Cat#356663). The day of the experiment, the cells are washed with a plate washer (Bioteck Instruments, ELX 405) using bath 1 buffer (140 mM NaCl, 4,5 mM KCl, 2 mM CaCl2, 1 mM MgCl2, 10 mM Hepes-Na, 10 mM Glucose, pH 7.4, with NaOH) containing 1 mM Probenecid. Next, the calcium dye Fluo-3 (25 μl/well of Fluo-3 AM at 4 μM, Molecular Probes F-1241, in Bath 1 buffer containing 1 mM Probenecid) is added to the 25 μl of Bath 1 remaining in each well after the plate wash and the dye is loaded at 37° C. in the tissue culture incubator for 60-90 min. The fluorescent dye is removed using the plate washer with Bath 1 containing 1 mM Probenecid, leaving 25 μl/well of this solution after the wash. Alternatively, cells can be loaded with the calcium indicator from Molecular Devices (Calcium 3 Assay Reagents, Cat #R7181) adding 5 μl of a 5× solution dye in Bath 1 containing 1 mM Probenecid (10 ml per dye flask cat#R7182 to generate a solution […]) to 20 μl of the same buffer. After loading for 60 min, the experiment can be run without having to remove the dye.
(§4) Compounds are prepared at a 2× fold concentration in a 96-well plate (round bottom, Costar Corning cat#3656), by reconstituting the pre-spotted compounds in bath 1 containing 1 mM probenecid. The final concentration DMSO is 0.5%, and the amount of DMSO is normalized across the assay plate. To determine an agonist action of the compounds on muscarinic receptors, the reconstituted compounds are added (25 μl compound/well) to the cell assay plate (containing 25 μl/well) using the multi-channel robotic system of the FLIPR 3 Instrument (Molecular Devices, Sunnyvale, Calif.). To determine a functional inhibitory action of the compounds on muscarinic receptors, the reconstituted compounds are added (25 μl compound/well) to the assay plate and pre-incubated for 15 min prior to adding 25 μl of Carbachol at 3× the EC80 for each muscarinic subtype. Alternatively, the compounds can be co-applied simultaneously with the agonist. In both assay modes, the fluorescence is recorded for 60 sec (excitation wavelength is […] and emission wavelength 540 nm) using the FLIPR 3 instrument.
(§5) The potency, efficacy and selectivity of the muscarinic compounds were evaluated by screening the compound activity across the whole family (M1 to M5 cells). Compounds were also screened for activity on other proteins such as other GPCRs and ion channels to determine selectivity on M4 receptors.

M2 muscarinic receptor = target: T2, M2 muscarinic receptor (Homo sapiens, UniProt P08172); test: Functional mobilization of intracellular calcium (FLIPR) in CHO cells expressing M2; conditions: for EC50: CHO cells expressing M2, FLIPR calcium; for Emax: CHO, read-out: M2 Efficacy
T2 construct: expressed in transfected cells; host or cells: CHO (M2-CHO)
T2 sequence (P08172 1-466): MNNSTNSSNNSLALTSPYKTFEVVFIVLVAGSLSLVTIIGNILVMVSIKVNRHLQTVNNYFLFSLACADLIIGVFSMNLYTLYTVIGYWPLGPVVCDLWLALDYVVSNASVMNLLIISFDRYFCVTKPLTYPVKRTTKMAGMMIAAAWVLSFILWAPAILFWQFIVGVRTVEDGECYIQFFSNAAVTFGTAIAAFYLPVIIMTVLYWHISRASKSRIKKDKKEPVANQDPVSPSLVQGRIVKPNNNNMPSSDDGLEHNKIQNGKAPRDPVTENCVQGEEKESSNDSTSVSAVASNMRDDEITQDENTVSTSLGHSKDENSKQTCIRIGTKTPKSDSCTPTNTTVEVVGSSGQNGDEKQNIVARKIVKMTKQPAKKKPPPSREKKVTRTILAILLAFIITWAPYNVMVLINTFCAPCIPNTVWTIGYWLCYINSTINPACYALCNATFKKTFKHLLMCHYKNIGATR
Protocol: as §1, §2, §3, §4, §5

M4 muscarinic receptor = target: T3, M4 muscarinic receptor (Homo sapiens, UniProt P08173); test: Functional mobilization of intracellular calcium (FLIPR) in CHO cells expressing M4; conditions: for EC50: CHO cells expressing M4, FLIPR calcium; for Emax: CHO, read-out: M4 Efficacy
T3 construct: expressed in transfected cells; host or cells: CHO (M4-CHO)
T3 sequence (P08173 1-479): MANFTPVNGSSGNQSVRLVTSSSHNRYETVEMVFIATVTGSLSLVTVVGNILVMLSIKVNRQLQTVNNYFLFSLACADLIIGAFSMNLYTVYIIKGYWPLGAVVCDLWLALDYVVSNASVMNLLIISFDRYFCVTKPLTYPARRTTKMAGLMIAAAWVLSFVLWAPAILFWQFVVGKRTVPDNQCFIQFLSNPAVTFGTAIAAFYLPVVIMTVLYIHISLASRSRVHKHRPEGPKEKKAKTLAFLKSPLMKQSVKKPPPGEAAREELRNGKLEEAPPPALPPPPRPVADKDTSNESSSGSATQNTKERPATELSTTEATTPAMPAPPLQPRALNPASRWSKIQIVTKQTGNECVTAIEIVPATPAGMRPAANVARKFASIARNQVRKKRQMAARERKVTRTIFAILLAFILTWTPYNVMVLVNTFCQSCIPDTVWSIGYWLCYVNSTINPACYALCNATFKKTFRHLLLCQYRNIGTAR
Protocol: as §1, §2, §3, §4, §5

M1 muscarinic receptor = target: T4, M1 muscarinic receptor (Homo sapiens, UniProt P11229); test: Functional mobilization of intracellular calcium (FLIPR) in CHO cells expressing M1; conditions: for EC50: CHO cells expressing M1, FLIPR calcium; for Emax: CHO, read-out: M1 Efficacy
T4 construct: expressed in transfected cells; host or cells: CHO (M1-CHO)
T4 sequence (P11229 1-460): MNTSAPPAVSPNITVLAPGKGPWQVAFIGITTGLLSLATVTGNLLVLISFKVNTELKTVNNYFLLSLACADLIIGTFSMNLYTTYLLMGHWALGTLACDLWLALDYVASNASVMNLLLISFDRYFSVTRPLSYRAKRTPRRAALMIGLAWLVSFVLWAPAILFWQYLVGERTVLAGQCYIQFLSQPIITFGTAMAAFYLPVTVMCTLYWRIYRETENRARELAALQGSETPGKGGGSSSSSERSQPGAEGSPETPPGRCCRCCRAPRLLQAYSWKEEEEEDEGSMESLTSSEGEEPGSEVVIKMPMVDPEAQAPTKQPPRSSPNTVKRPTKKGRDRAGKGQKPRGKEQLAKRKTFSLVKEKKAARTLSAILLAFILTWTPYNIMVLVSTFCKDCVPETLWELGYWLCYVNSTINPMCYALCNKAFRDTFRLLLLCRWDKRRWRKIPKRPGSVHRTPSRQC
Protocol: as §1, §2, §3, §4, §5

[1] = 100% = maximum response obtained with the Carbachol control

T1 sequence (P20309 whole entry): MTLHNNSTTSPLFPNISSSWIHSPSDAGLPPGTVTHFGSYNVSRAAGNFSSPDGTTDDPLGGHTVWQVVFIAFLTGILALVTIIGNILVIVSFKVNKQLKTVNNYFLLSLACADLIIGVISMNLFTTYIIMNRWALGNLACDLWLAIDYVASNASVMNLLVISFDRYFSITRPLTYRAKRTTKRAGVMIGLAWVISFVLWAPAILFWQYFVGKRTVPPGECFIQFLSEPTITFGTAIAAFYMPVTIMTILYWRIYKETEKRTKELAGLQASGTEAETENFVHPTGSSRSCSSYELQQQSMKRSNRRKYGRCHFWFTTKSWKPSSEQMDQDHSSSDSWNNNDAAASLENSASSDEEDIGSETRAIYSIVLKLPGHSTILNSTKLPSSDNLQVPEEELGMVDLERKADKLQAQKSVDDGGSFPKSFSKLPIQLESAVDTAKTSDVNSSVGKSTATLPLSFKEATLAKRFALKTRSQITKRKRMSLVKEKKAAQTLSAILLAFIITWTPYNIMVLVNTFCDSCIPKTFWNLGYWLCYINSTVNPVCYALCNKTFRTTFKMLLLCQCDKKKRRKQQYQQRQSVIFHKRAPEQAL

Row | Structure (SMILES) | EC50 (M3 muscarinic receptor) [µM] | Emax (M3 muscarinic receptor; [1]) [%] | EC50 (M2 muscarinic receptor) [µM] | Emax (M2 muscarinic receptor; [1]) [%] | EC50 (M4 muscarinic receptor) [µM] | Emax (M4 muscarinic receptor; [1]) [%] | EC50 (M1 muscarinic receptor) [µM] | Emax (M1 muscarinic receptor; [1]) [%] | M3 Efficacy (M3 muscarinic receptor; [1]) | M2 Efficacy (M2 muscarinic receptor; [1]) | M4 Efficacy (M4 muscarinic receptor; [1]) | M1 Efficacy (M1 muscarinic receptor; [1])
1 | CCN(C(=O)C1CCOC1)[C@H]1CCC2(CCN(CCC(C)(C)C)CC2)c2ccccc21 (some centres unmarked) [compound 9] | > 5 | < 25 | > 5 | < 25 | < 2 | 25 to 100 | > 5 | 25 to 100 | – | – | – | –
2 | CCN(C(=O)c1cscn1)[C@H]1CCC2(CCN(CCC(C)(C)C)CC2)c2ccccc21 [compound 10] | > 5 | < 25 | > 5 | < 25 | < 2 | 25 to 100 | > 5 | < 25 | – | – | – | –
3 | CCC(=O)N[C@@H]1CCC2(CCN(CCC(C)(C)C)CC2)c2cc(F)ccc21 [compound 11] | > 5 | < 25 | > 5 | < 25 | < 2 | 25 to 100 | < 2 | 25 to 100 | – | – | – | –
4 | CCOC(=O)N[C@H]1CCC2(CCN(CCC(C)(C)C)CC2)c2ccccc21 [compound 12] | > 5 | < 25 | < 2 | 25 to 100 | < 2 | 25 to 100 | < 2 | 25 to 100 | – | – | – | –
5 | CCC(=O)N1CCCC(C(=O)N[C@@H]2CCC3(CCN(CCC(C)(C)C)CC3)c3ccccc32)C1 (some centres unmarked) [compound 13] | > 5 | < 25 | > 5 | < 25 | < 2 | 25 to 100 | > 5 | < 25 | – | – | – | –
6 | CC(=O)N[C@H](C)C(=O)N[C@@H]1CCC2(CCN(CCC(C)(C)C)CC2)c2ccccc21 [compound 14] | > 5 | – | 2 to 5 | – | < 2 | – | > 5 | – | + (efficacy was calculated to be less than 25%) | + (efficacy was calculated to be less than 25%) | ++ (efficacy was calculated to be from 100% to 25%) | ++ (efficacy was calculated to be from 100% to 25%)
7 | CCN(C(=O)C1CCCN1C(C)=O)[C@H]1CCC2(CCN(CCC(C)(C)C)CC2)c2ccccc21 (some centres unmarked) [compound 15] | > 5 | < 25 | > 5 | < 25 | < 2 | 25 to 100 | < 2 | 25 to 100 | – | – | – | –

From patent US8003660B2, “Modulators of muscarinic receptors” (Vertex Pharmaceuticals Incorporated, priority 2006, dated 2011)
